The results in this text go back to patent US12692236B2, “Small molecule modulators of sigma-1 and sigma-2 receptors and uses thereof” (Northwestern University, priority 2018, dated 2026).

One assay addresses sigma-1 receptor (Homo sapiens, UniProt Q99720). As to the kind of experiment: sigma-1 receptor binding affinity (Ki). The note with it: for Ki: read-out: Ki (nM) Sigma-1.
The target in another assay is sigma-2 receptor (Homo sapiens, UniProt Q5BJF2). As to the kind of experiment: sigma-2 receptor binding affinity (Ki). The note with it: for Ki: read-out: Ki (nM) Sigma-2.
sigma-2 receptor, sequence (Q5BJF2 whole entry, species assumed): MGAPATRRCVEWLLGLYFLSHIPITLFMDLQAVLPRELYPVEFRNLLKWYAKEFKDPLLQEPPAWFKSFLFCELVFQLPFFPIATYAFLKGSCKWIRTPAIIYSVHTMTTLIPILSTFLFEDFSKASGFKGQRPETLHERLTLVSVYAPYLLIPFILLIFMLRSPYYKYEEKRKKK

SMILES strings stand for the structures.

sigma-1 receptor, sequence (Q99720 whole entry, species assumed): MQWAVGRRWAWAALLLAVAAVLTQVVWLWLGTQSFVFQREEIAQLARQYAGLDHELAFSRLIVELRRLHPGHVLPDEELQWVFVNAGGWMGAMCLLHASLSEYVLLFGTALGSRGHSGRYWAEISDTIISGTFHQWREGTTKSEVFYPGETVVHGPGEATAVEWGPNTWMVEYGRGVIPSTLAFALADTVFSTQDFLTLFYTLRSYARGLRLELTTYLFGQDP

In the case of `O=C(c1nn(-c2ccccc2)c2c1CC(NCCc1ccc3c(c1)OCO3)CC2)N1CCCCC1` (stereo not drawn) [compound 201679, (5-((2-(Benzo[d][1,3]dioxol-5-yl)ethyl)amino)-1-phenyl-4,5,6,7-tetrahydro-1H-indazol-3-yl)(piperidin-1-yl)methanone], the values for the Ki at sigma-1 receptor and on sigma-2 receptor were 547 nM and 349 nM, respectively.
For the compound `O=C(c1nn(-c2ccccc2)c2c1CC(NCCc1cccc(O)c1)CC2)N1CCCCC1` (stereo not drawn) [compound 201681, (5-((3-Hydroxyphenethyl)amino)-1-phenyl-4,5,6,7-tetrahydro-1H-indazol-3-yl)(piperidin-1-yl)methanone], the Ki is 204 nM on sigma-1 receptor and above 10000 nM at sigma-2 receptor.
Regarding `O=C(c1c2c(nn1-c1ccccc1)CCC(NCCc1ccc(C(F)(F)F)cc1)C2)N1CCCCC1` (stereo not drawn) [compound 201683, (2-Phenyl-5-((4-(trifluoromethyl)phenethyl)amino)-4,5,6,7-tetrahydro-2H-indazol-3-yl)(piperidin-1-yl)methanone], the values for the Ki at sigma-1 receptor and at sigma-2 receptor were 213 nM and above 10000 nM, respectively.
Consider `O=C(c1nn(-c2ccccc2)c2c1CC(NCCc1ccc(C(F)(F)F)cc1)CC2)N1CCCCC1` (stereo not drawn) [compound 201684, (1-Phenyl-5-((4-(trifluoromethyl)phenethyl)amino)-4,5,6,7-tetrahydro-1H-indazol-3-yl)(piperidin-1-yl)methanone], for which the Ki at sigma-1 receptor was 337 nM; at sigma-2 receptor, above 10000 nM.
In the case of `CCCn1nc(C(=O)N(C)C)c2c1CCC(NC(=O)c1ccc(F)cc1)C2` (stereo not drawn) [compound 2000623, 5-(4-fluorobenzamido)-N,N-dimethyl-1-propyl-4,5,6,7-tetrahydro-1H-indazole-3-carboxamide], on sigma-1 receptor, the “activity against sigma-1 (in words)” value is “did not restore the activity” and the Ki was above 10000 nM. Further, at sigma-2 receptor, the “activity against sigma-2 (in words)” value is “did not restore the activity” and the Ki is above 10000 nM.
As for `O=C(c1nn(-c2ccccc2)c2c1CC(NCc1ccc(F)cc1)CC2)N1CCCCC1` (stereo not drawn) [compound 2001685, (5-((4-Fluorobenzyl)amino)-1-phenyl-4,5,6,7-tetrahydro-1H-indazol-3-yl)(piperidin-1-yl)methanone], the Ki at sigma-1 receptor was 159 nM; at sigma-2 receptor, above 10000 nM. In addition, the “improvement in potency against sigma-1 receptor” value on sigma-1 receptor (relative to the comparator analog named in the text) is “over 4 fold”.

In general, Ki refers to a measure of affinity in units of concentration, obtained from inhibition or displacement.
